Assay results as given in patent publication US20240368122A1, “JAK2 INHIBITORS AND METHODS OF USE THEREOF” (RELAY THERAPEUTICS, INC., priority 2021, published 2024).
Read-outs that look alike come from different tables or passages of the source.

Columns and labels:
[1] = tested on: TF1 JAK2 V617F STAT5 reporter; assay: Cellular TF1 STAT5 assay (luciferase reporter), JAK2 V617F; type: cell-based; conditions: read-out: Cell PD TF1 V617F STAT5 (IC50)
Method in brief: (§1)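 TF1 erythroleukemia cells expressing V617F JAK2 with a STAT3 or STAT5 luciferase reporter were seeded at 10,000 cells/well onto compound (10-point, 1:3 dilutions; 10 mM top stock at 1000×) and incubated 18-20 h at 37 °C, 5% CO2. Luminescence was read after ONE-glo addition, 10 min at room temperature.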

[2] = target: T1, JAK2 JH2 WT (V536-D812) [W659A, W777A, F794H solubilizing mutations] (Homo sapiens, UniProt O60674, F794H/W659A/W777A); assay: Surface Plasmon Resonance (SPR) binding assay, JAK2 JH2 domain
T1 construct: **JAK2 JH2 WT (V536-D812) [W659A, W777A, F794H solubilizing mutations]; C-thrombin-avi-His6; thrombin cleavage site (C); His6 (C); purchased Biortus
T1 sequence (O60674 536-812 W659A/W777A/F794H): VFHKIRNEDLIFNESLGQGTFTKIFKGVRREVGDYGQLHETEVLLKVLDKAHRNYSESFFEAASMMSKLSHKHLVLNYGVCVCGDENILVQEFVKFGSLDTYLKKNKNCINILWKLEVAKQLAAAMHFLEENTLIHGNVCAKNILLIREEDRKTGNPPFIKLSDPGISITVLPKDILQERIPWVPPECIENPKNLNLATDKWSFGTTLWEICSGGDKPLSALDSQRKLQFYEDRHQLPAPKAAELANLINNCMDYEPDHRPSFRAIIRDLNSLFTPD
Method in brief: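 Kinetics came from 1:1 fits of single-cycle runs at 20 °C: four 3-fold dilutions from 5 uM for JH1 or 500 nM for JH2, 60 s association, and 300 s or 1200 s dissociation respectively. Protein was freshly captured per compound in the presence of 10 uM stabilizer compound, with running buffer of pH 7.5 HEPES/NaCl/glycerol/DTT plus 2% DMSO.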

JAK2 JH1 WT (T842-G1132) = target: T2, JAK2 JH1 WT (T842-G1132) (Homo sapiens, UniProt O60674); assay: Surface Plasmon Resonance (SPR) binding assay, JAK2 JH1 domain
T2 construct: *JAK2 JH1 WT (T842-G1132) N-His60-avi-TEV; His6 (N); TEV cleavage site (N); purchased Biortus
T2 sequence (O60674 842-1132): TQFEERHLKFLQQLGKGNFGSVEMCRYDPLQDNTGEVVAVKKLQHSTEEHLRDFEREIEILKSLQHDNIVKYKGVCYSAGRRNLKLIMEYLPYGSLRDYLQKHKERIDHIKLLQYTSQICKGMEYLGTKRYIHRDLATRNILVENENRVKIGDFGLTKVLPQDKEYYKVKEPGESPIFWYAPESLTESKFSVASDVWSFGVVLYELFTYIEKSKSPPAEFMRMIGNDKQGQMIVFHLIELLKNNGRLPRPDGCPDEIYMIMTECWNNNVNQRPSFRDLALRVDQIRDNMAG
Description: Selected compounds of the present disclosure were tested in a Surface Plasmon Resonance (SPR) Assay to measure their binding kinetics and affinity for proteins of interest.
Prepare buffer: 50 mM HEPES pH 7.5, 150 mM NaCl, 0.05% (v/v) Tween, and 10% (v/v) glycerol were combined and pH was adjusted to 7.5, then filtered. 5 mM DTT, was added, and buffer without DMSO was reserved for compound resuspension. 2% (v/v) DMSO was added for assay buffer, and separately 1% DMSO was used to make buffer for resuspending compounds.
Prepare compounds: Using a Bravo liquid handler, 99 μL of 1% (v/v) DMSO assay buffer was added to 1 μL compounds in DMSO.
Run 8K Method: Biotin CAPture (CAP) chip surface was regenerated prior to run by: Inserting CAP chip into Biacore 8K, prime machine with assay buffer with 2% (v/v) DMSO; Setting instrument temperature to 20° C.; Conditioning surface with NaOH/GdnHCl reagents from CAP chip kit (60 seconds, 10 μL/min); and Capturing oligo-Streptavidin (SA) reagent from CAP kit (600 seconds, 1 μL/min), expected capture ˜2500 RU. JAK2 JH1 or JH2 protein was immobilized by preparing a sample of 0.5 uM JH1 or 0.4 uM JH2 protein diluted in assay buffer without DMSO and supplemented with 10 uM of a selected compound of the invention as a stabilizer (370 seconds, 5 uL/min), expected capture ˜1000 RU. Remaining biotin sites on SA were blocked with 1 uM biotin (30 seconds, 20 uL/min), then equilibrated for 1800 seconds at 100 uL/min. Compounds being assayed were run in single cycle kinetics: 4 doses with a top concentration of 5 uM (JH1) or 500 nM (JH2), dilution factor of 3, at 20° C., for a contact time of 60 seconds, and a dissociation time of 300 seconds (JH1) or 1200 seconds (JH2), at a flow rate of 30 uL/min. The surface was completely regenerated after each compound is run, and JH1 or JH2 protein was immobilized fresh prior to each new compound. Data were fitted kinetically with 1:1 binding model using Biacore Insight Evaluation Software.

[3] = tested on: TF1 JAK2 V617F STAT3 reporter; assay: Cellular TF1 STAT3 assay (luciferase reporter), JAK2 V617F; type: cell-based; conditions: read-out: Cell PD-TF1 JAK2 V617F STAT3 (IC50)
Method in brief: as §1

[4] = Homo sapiens, TF-1, TF1 cells, JAK2 V617F

Compound	IC50 ([1]; TF1 JAK2 V617F) [nM]	Kd ([2]; SPR, JAK2 JH2 domain) [nM]	Kd (JAK2 JH1 WT (T842-G1132); SPR, JAK2 JH1 domain) [nM]	IC50 ([3]; TF1 JAK2 V617F) [nM]	IC50 [1, 4] [nM]	Kd [2] [nM]	Kd (JAK2 JH1 WT (T842-G1132)) [nM]	IC50 [3, 4] [nM]
CNC(=O)c1nnc(NC(=O)C2CC2)cc1Nc1cccc(-c2cnc(C(=O)N(C)Cc3cc(C#N)ccn3)cc2C)c1OC [Compound 32]	500 to 5000	0.01 to 10	5000 to 100000	500 to 5000	–	–	–	–
CNC(=O)c1nnc(NC(=O)C2CC2)cc1Nc1cccc(-c2cnc(C(=O)NCc3cccn(C)c3=O)nc2)c1OC [Compound 9]	5000 to 100000	0.01 to 10	500 to 5000	500 to 5000	–	–	–	–
CNC(=O)c1nnc(NC(=O)C2CC2)cc1Nc1cccc(-c2cnn(C3CN(Cc4ccn(C)n4)C3)c2)c1OC [Compound 41]	50 to 500	0.01 to 10	500 to 5000	50 to 500	–	–	–	–
CNC(=O)c1nnc(NC(=O)C2CC2)cc1Nc1cccc(-c2cnn(C3CN(Cc4cnn(C)c4)C3)c2)c1OC [Compound 44]	500 to 5000	0.01 to 10	500 to 5000	500 to 5000	–	–	–	–
CNC(=O)c1nnc(NC(=O)C2CC2)cc1Nc1ccc(C)c(-c2ccc(C(=O)N(C)Cc3ccn(C)n3)nc2)c1OC [Compound 34]	50 to 500	0.01 to 10	5000 to 100000	50 to 500	–	–	–	–
CNC(=O)c1nnc(NC(=O)C2CC2)cc1Nc1ccc(C)c(-c2ccc(C(=O)N(C)Cc3cc(C#N)ccn3)nc2)c1OC [Compound 33]	10 to 50	0.01 to 10	5000 to 100000	10 to 50	–	–	–	–
CNC(=O)c1nnc(NC(=O)C2CC2)cc1Nc1cccc(-c2ccc(C(=O)NCc3cccn(C)c3=O)cc2)c1OC [Compound 1]	500 to 5000	0.01 to 10	500 to 5000	500 to 5000	–	–	–	–
CNC(=O)c1nnc(NC(=O)C2CC2)cc1Nc1cccc(-c2cnc(C(=O)N(C)Cc3cc(C#N)ccn3)c(F)c2)c1OC [Compound 28]	50 to 500	0.01 to 10	5000 to 100000	50 to 500	–	–	–	–
CNC(=O)c1nnc(NC(=O)C2CC2)cc1Nc1cccc(-c2ccc(C(=O)N(C)Cc3cc(C#N)ccn3)nc2)c1OC [Compound 18]	50 to 500	0.01 to 10	5000 to 100000	50 to 500	–	–	–	–
CNC(=O)c1nnc(NC(=O)C2CC2)cc1Nc1cccc(-c2cnn(C3CN(Cc4cc(C#N)ccn4)C3)c2)c1OC [Compound 66]	500 to 5000	0.01 to 10	5000 to 100000	50 to 500	–	–	–	–
CNC(=O)c1nnc(NC(=O)C2CC2)cc1Nc1cccc(-c2cnn(C3CN(Cc4ccccn4)C3)c2)c1OC [Compound 39]	50 to 500	0.01 to 10	500 to 5000	50 to 500	–	–	–	–
CNC(=O)c1nnc(NC(=O)C2CC2)cc1Nc1cccc(-c2ccc(C(=O)N(C)Cc3cccn(C)c3=O)cc2)c1OC [Compound 3, 6-(cyclopropanecarboxamido)-4-((2-methoxy-4′-(methyl((1-methyl-2-oxo-1,2-dihydropyridin-3-yl)methyl)carbamoyl)-[1,1′-biphenyl]-3-yl)amino)-N-methylpyridazine-3-carboxamide]	500 to 5000	0.01 to 10	5000 to 100000	500 to 5000	–	–	–	–
CNC(=O)c1nnc(NC(=O)C2CC2)cc1Nc1cccc(-c2ccc(C(=O)N(C)Cc3ccnn3C)nc2)c1OC [Compound 40]	500 to 5000	0.01 to 10	5000 to 100000	500 to 5000	–	–	–	–
CNC(=O)c1nnc(NC(=O)C2CC2)cc1Nc1cccc(-c2cnc(C(=O)N(C)Cc3cc(C#N)ccn3)nc2)c1OC [Compound 36]	50 to 500	0.01 to 10	5000 to 100000	50 to 500	–	–	–	–
CNC(=O)c1nnc(NC(=O)C2CC2)cc1Nc1ccc(C)c(-c2cnc(C(=O)N(C)Cc3cc(C#N)ccn3)c(F)c2)c1OC [Compound 42]	50 to 500	0.01 to 10	5000 to 100000	50 to 500	–	–	–	–

Now from value to compound:

IC50 ([1]; TF1 JAK2 V617F) [nM]	Kd ([2]; SPR, JAK2 JH2 domain) [nM]	Kd (JAK2 JH1 WT (T842-G1132); SPR, JAK2 JH1 domain) [nM]	IC50 ([3]; TF1 JAK2 V617F) [nM]	IC50 [1, 4] [nM]	Kd [2] [nM]	Kd (JAK2 JH1 WT (T842-G1132)) [nM]	IC50 [3, 4] [nM]	Compound
50 to 500	0.01 to 10	5000 to 100000	50 to 500	–	–	–	–	CNC(=O)c1nnc(NC(=O)C2CC2)cc1Nc1cccc(-c2ccc(C(=O)N(C)Cc3cc(C(F)F)ccn3)nc2)c1OC [Compound 158]
500 to 5000	0.01 to 10	5000 to 100000	50 to 500	–	–	–	–	CNC(=O)c1nnc(NC(=O)C2CC2)cc1Nc1cccc(-c2ccc(C(=O)N(C)Cc3cccnc3C#N)nc2)c1OC [Compound 136]
50 to 500	0.01 to 10	5000 to 100000	50 to 500	–	–	–	–	CNC(=O)c1nnc(NC(=O)C2CC2)cc1Nc1cccc(-c2ccc(C(=O)N(C)Cc3cccc(C#N)n3)nc2)c1OC [Compound 135]
50 to 500	0.01 to 10	500 to 5000	50 to 500	–	–	–	–	CNC(=O)c1nnc(NC(=O)C2CC2)cc1Nc1cccc(-c2cnn(C3CN(Cc4cccc(F)n4)C3)c2)c1OC [Compound 142]
50 to 500	0.01 to 10	5000 to 100000	50 to 500	–	–	–	–	CNC(=O)c1nnc(NC(=O)C2CC2)cc1Nc1cccc(-c2cnn(C3CN(Cc4cccc(C(F)F)n4)C3)c2)c1OC [Compound 145]
500 to 5000	0.01 to 10	5000 to 100000	500 to 5000	–	–	–	–	CNC(=O)c1nnc(NC(=O)C2CC2)cc1Nc1cccc(-c2ccc(C(=O)N(C)Cc3ccn(C)n3)c(C#N)c2)c1OC [Compound 119]
–	–	–	–	50 to 500	0.01 to 10	500 to 5000	50 to 500	CNC(=O)c1nnc(NC(=O)C2CC2)cc1Nc1cccc(-c2cn(C3CN(Cc4cccc(C#N)n4)C3)nc2COC)c1OC [Compound 328]
5000 to 100000	0.01 to 10	500 to 5000	500 to 5000	–	–	–	–	CNC(=O)c1nnc(NC(=O)C2CC2)cc1Nc1cccc(-c2cnn(C3CN(Cc4ccnc(C)n4)C3)c2)c1OC [Compound 148]
50 to 500	0.01 to 10	5000 to 100000	50 to 500	–	–	–	–	CNC(=O)c1nnc(NC(=O)C2CC2)cc1Nc1cccc(-c2ccc(C(=O)N(Cc3cc(C#N)ccn3)OC)nc2)c1OC [Compound 159]
5000 to 100000	10 to 50	5000 to 100000	5000 to 100000	–	–	–	–	CNC(=O)c1nnc(NC(=O)C2CC2)cc1Nc1cccc(-c2nnc(C3CN(Cc4ccccn4)C3)o2)c1OC [Compound 156]
500 to 5000	0.01 to 10	5000 to 100000	500 to 5000	–	–	–	–	CNC(=O)c1nnc(NC(=O)C2CC2)cc1Nc1cccc(-c2cnn(C3CN(Cc4nc(C)cs4)C3)c2)c1OC [Compound 141]
50 to 500	0.01 to 10	500 to 5000	50 to 500	–	–	–	–	C#Cc1cccc(CN2CC(n3cc(-c4cccc(Nc5cc(NC(=O)C6CC6)nnc5C(=O)NC)c4OC)cn3)C2)n1 [Compound 152]
–	–	–	–	500 to 5000	0.01 to 10	500 to 5000	500 to 5000	CNC(=O)c1nnc(NC(=O)C2CC2)cc1Nc1cccc(-c2cn(C3CN(Cc4cccc(C#N)n4)C3)nc2CO)c1OC [Compound 329]
500 to 5000	0.01 to 10	5000 to 100000	500 to 5000	–	–	–	–	CNC(=O)c1nnc(NC(=O)C2CC2)cc1Nc1cc(F)cc(-c2cnn(C3CN(Cc4ccn(C)n4)C3)c2)c1OC [Compound 155]
50 to 500	0.01 to 10	5000 to 100000	50 to 500	–	–	–	–	CNC(=O)c1nnc(NC(=O)C2CC2)cc1Nc1cccc(-c2cnn(C3CN(Cc4cccc(Cl)n4)C3)c2)c1OC [Compound 143]
500 to 5000	0.01 to 10	5000 to 100000	500 to 5000	–	–	–	–	CNC(=O)c1nnc(NC(=O)C2CC2)cc1Nc1cccc(-c2cn(C3CN(Cc4ccccn4)C3)nn2)c1OC [Compound 150]
